{"source": "patent US8518953B2", "about": "“Aminopyrimidines useful as inhibitors of protein kinases” (Vertex Pharmaceuticals Incorporated, priority 2007, dated 2013)", "key": {"GSK3α TYR 279": {"target": "T1, GSK3α TYR 279 (Homo sapiens, UniProt P49840)", "T1 construct": "western blotting of Jurkat cells dosed with the compounds; endogenous in cells; host or cells: Jurkat cells", "T1 sequence (P49840 whole entry)": "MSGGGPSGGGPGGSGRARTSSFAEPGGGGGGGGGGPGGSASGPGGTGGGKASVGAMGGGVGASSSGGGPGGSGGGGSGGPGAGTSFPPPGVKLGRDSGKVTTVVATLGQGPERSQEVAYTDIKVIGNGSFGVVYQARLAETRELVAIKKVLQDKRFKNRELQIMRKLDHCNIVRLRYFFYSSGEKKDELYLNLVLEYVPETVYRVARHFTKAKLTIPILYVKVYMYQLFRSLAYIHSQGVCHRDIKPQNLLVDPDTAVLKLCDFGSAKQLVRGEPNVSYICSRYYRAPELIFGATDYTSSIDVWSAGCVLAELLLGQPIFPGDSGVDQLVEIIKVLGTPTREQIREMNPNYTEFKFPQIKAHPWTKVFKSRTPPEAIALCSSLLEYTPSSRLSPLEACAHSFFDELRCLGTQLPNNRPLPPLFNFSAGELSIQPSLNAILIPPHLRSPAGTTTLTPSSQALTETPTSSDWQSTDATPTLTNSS", "experiment": "GSK-3α p-TYR Inhibition Assay (western blotting of Jurkat cells)", "format": "cell-based", "conditions": "western blot, read-out: GSK3a pTYR 279: IC50", "experimental": "Compounds are screened for their ability to inhibit the phosphorylation of tyrosine (TYR) residues through the use of western blotting of Jurkat cells dosed with the compounds. The phosphorylation of the specific TYR residues tested are GSK3α TYR 279 and GSK3β TYR 216.\nJurkat cells are seeded at a density of 2×10^5 cells/well in a 12 well dish in starvation media (RPMI+1% FBS+P/S). Following starvation for 16 hours, the compound is dosed into each well at a final DMSO concentration of 0.3% and cells are incubated o/n at 37° C. 5% CO2. The next day, cells are spun down at 1500 rpm, washed with PBS, and lysed in 100 uL Laemli sample buffer with β-mercaptoethanol.\n15 microliters (uL) of cell lysates are loaded onto a 10% tris-glycine gel and run at 120 v for 2 hours or until dye front runs off of the gel. The protein is then transferred onto a PVDF membrane at 100 v for 60 min. PBST (PBS containing 0.1% Tween 20, such as 1 ml Tween per 1 L of PBS) is then made up and used for all washes and antibody incubations. The blot is blocked in 5% nonfat milk PBST for one hour.\nThe primary antibody (GSK-3α/β pTYR 279/216 at 1:1000 dilution Upstate cat#05-413) is then added in […] PBST overnight at 4° C. with gentle rocking. The blot is then washed in PBST for 5 min. This is then repeated 4 times. […]"}, "[1]": {"test_system": "human umbilical vein endothelial cells (HUVEC)", "experiment": "In Vitro Model of Angiogenesis Using HUVEC and Skin Fibroblasts", "format": "cell-based", "conditions": "HUVEC cultures", "from_the_text": "Compounds are screened for the ability to enhance angiogenesis in human umbilical vein endothelial cells (HUVEC). This method, adapted from Nakatsu et al. Microvas. Res. 2003, describes a protocol that recapitulates the major events essential for new vessel growth: budding, cell migration, cell proliferation, lumen formation, branching, and anastomosis. HUVEC are used between P3 and P4. HUVEC are mixed with dextran coated cytodex 3 micro-carriers (Amersham Pharmacia) at a concentration of 400 HUVEC per bead in 1 ml of EGM-2 (2% FBS) medium (Clonetics). Beads with cells are then shaken gently every 20 min for 4 hr at 37° C. and 5% CO2. After incubating, beads with cells are transferred to a T-25 tissue culture flask and left for 12-16 hr in 5 ml of EGM-2 at 37° C. 5% CO2. The following day beads with cells are washed three times with EGM-2 and re-suspended at a concentration of 200 cell-coated beads/ml in 2.5 mg/ml of fibrinogen (Sigma) with 0.15 U/ml of aprotinin (Sigma) at a pH of 7.4. 500 ul of fibrinogen/bead solution is then added to 0.625 U of thrombin (Sigma) in one well of a 24 well tissue culture plate. Fibrinogen/Bead solution is allowed to clot for 5 min at room temperature and then at 37° C. 5% CO2 for 20 min. 1 ml of EGM-2 with 0.15 U/ml of aprotinin is then added to each well and equilibrated with the fibrin clot for 30 min at 37° C. and 5% CO2. Next, media is removed from the well and replaced with 1 ml of fresh medium. 20,000 skin fibroblasts (SF ATCC Detroit 551) are plated on top of the clot and medium is changed every other day. […] Angiogenesis is scored by quantification of images captured on an inverted microscope at 10× and 20× magnification for vessel length, number of vessels and branches per bead using NIH Image J software. […] YFP positive HUVEC are then cultured as described above and quantification of vessel formation is determined by calculating the area under the threshold fluorescence using NIH Image J software. In both cases, enhanced angiogenesis is determined by comparing compound treated cultures with a DMSO control culture at the same time point."}, "[2]": {"conditions": "concentrations that have been shown to induce β-catenin"}}, "data": [{"smiles": "Cc1nc(-c2ccccc2Cl)nc(Nc2n[nH]c3ncc(F)cc23)c1C", "note": "[Compound I-1, N-(2-(2-chlorophenyl)-5,6-dimethylpyrimidin-4-yl)-5-fluoro-1H-pyrazolo[3,4-b]pyridin-3-amine]", "values": [{"measurement": "IC50", "setting": "GSK3α TYR 279", "result": "< 500", "unit": "pM"}, {"measurement": "vessel and network formation", "setting": "[1]; 10 nM, 7 days", "result": "increase vessel and network formation"}, {"measurement": "cell proliferation", "setting": "[1]; [2]", "result": "increased cell proliferation was observed"}, {"measurement": "vessel formation", "setting": "[1]; [2]", "result": "vessel formation was inhibited"}]}]}
